pIC50: −log10 of the molar value.
Experiments:
Assay type in all cases: functional, cell-based
Caov-3 cell line = test: Cytotoxicity against CAOV-3 human tumor cell lines
L1210 = test: Cytotoxicity against L1210 tumor cell lines in mice; details: Mus musculus
A 172 = test: Cytotoxicity against A-172 human tumor cell lines
[1] = system: KATO III stomach cancer cell line; test: Cytotoxicity against KATO-III human tumor cell lines
DLD-1 = test: Cytotoxicity against DLD-1 human tumor cell lines

Compound | pIC50 (Caov-3 cell line) | pIC50 (L1210) | pIC50 (A 172) | pIC50 [1] | pIC50 (DLD-1)
CCC1(O)C(=O)OCc2c1cc1n(c2=O)Cc2c-1nc1ccccc1c2CCNCCO (stereo not given) | 5.33 | 4.89 | 4.63 | 4.32 | 5.06
CCC1(O)C(=O)OCc2c1cc1n(c2=O)Cc2c-1nc1ccccc1c2CCN1CCCCC1 (stereo not given) | < 4.00 | < 4.00 | 4.29 | < 4.00 | < 4.00
CCNCCc1c2c(nc3ccccc13)-c1cc3c(c(=O)n1C2)COC(=O)C3(O)CC (stereo not given) | 6.70 | 6.19 | 7.07 | 6.44 | 6.36
CCC1(O)C(=O)OCc2c1cc1n(c2=O)Cc2c-1nc1ccccc1c2CCN1CCCC1 (stereo not given) | < 4.00 | < 4.00 | < 4.00 | < 4.00 | < 4.00
CCC1(O)C(=O)OCc2c1cc1n(c2=O)Cc2c-1nc1ccccc1c2CCN(Cc1ccccc1)C(=O)OCc1ccccc1 (stereo not given) | 5.71 | 6.15 | 5.93 | 4.86 | 5.97
CC[C@@]1(O)C(=O)OCc2c1cc1n(c2=O)Cc2cc3ccccc3nc2-1 [CAMPTOTHECIN] | 7.52 | 6.74 | 6.85 | 5.93 | 6.68
CCC1(O)C(=O)OCc2c1cc1n(c2=O)Cc2c-1nc1ccccc1c2CCNCc1ccccc1 (stereo not given) | 6.77 | 5.39 | 6.55 | 6.07 | 6.51
CCCN(CCc1c2c(nc3ccccc13)-c1cc3c(c(=O)n1C2)COC(=O)C3(O)CC)C(=O)OCc1ccccc1 (stereo not given) | 6.85 | 5.96 | 5.63 | 6.29 | 6.26
CCC1(O)C(=O)OCc2c1cc1n(c2=O)Cc2c-1nc1ccccc1c2CCN(C(=O)OCc1ccccc1)C(C)C (stereo not given) | 7.39 | 5.89 | 6.02 | 5.73 | 5.74
CCC1(O)C(=O)OCc2c1cc1n(c2=O)Cc2c-1nc1ccccc1c2CCN(CCOC(C)=O)C(=O)OCc1ccccc1 (stereo not given) | 5.35 | 5.04 | 4.73 | 4.78 | 4.80
CCC1(O)C(=O)OCc2c1cc1n(c2=O)Cc2c-1nc1ccccc1c2CCN1CCOCC1 (stereo not given) | 4.37 | < 4.00 | 4.09 | 4.09 | < 4.00
CCN(CCc1c2c(nc3cc4c(cc13)OCO4)-c1cc3c(c(=O)n1C2)COC(=O)C3(O)CC)C(=O)OCc1ccccc1 (stereo not given) | 5.76 | 5.45 | 5.55 | 4.64 | 4.62
CCC1(O)C(=O)OCc2c1cc1n(c2=O)Cc2c-1nc1ccccc1c2CCN(CCO)C(=O)OCc1ccccc1 (stereo not given) | 5.94 | 5.54 | 5.72 | 4.86 | 5.01
CCC1(O)C(=O)OCc2c1cc1n(c2=O)Cc2c-1nc1ccccc1c2CCNCCOC(C)=O (stereo not given) | 6.06 | 5.36 | 6.13 | 6.09 | 5.46
CCC1(O)C(=O)OCc2c1cc1n(c2=O)Cc2c-1nc1ccccc1c2CCNC(C)C (stereo not given) | 7.39 | 6.89 | 6.96 | 7.40 | 6.96

Source: ChEMBL document CHEMBL1129725, “Synthesis and antitumor activity of 7-substituted 20(RS)-camptothecin analogues” (Bioorg Med Chem Lett, 1996)
